Tests used:
release of histamine [1] = experiment: Inhibitory effect on the release of histamine from guinea pig lung slices (Test Example 1); format: cell-based; conditions: for Histamine release-inhibition rate: average of three measurements
release of SRS-A [2] = experiment: Inhibitory effect on the release of SRS-A from guinea pig lung slices (Test Example 1); format: cell-based; conditions: for SRS-A release-inhibition rate: average of three measurements
release of histamine [3] = experiment: Inhibitory effect on the release of histamine from human lung slices (Test Example 3); format: cell-based; conditions: average of three measurements
Method: (§1) Inhibitory effect of MTB on the release of histamine and SRS-A from human lung slices
(§2) A macrographically normal portion was sampled from a human lung excised in a lung cancer operation and was passively sensitized with human atopy blood serum in a similar manner to the case of the rhesus monkey lung slices mentioned above. Thereafter the histamine and SRS-A release-inhibiting effect of the test medicines was measured in the same manner as in Test Example 1.

release of SRS-A [4] = experiment: Inhibitory effect on the release of SRS-A from human lung slices (Test Example 3); format: cell-based; conditions: average of three measurements
Method: as §1, §2

experimental asthma = experiment: Effect of preventing experimental asthma (Test Example 4); format: in vivo, guinea pig; conditions: 250 mg/kg oral; for Tidal volume-decrease rate: 60 min before causing asthma, average of seven
release of histamine [5] = experiment: Inhibitory effect on the release of histamine from rhesus monkey lung slices (Test Example 2); format: cell-based; conditions: average of three measurements
Method: (§3) Inhibitory effect of MTB on the release of histamine and SRS-A from rhesus monkey lung slices
(§4) Rhesus monkey lungs were cut into slices, which were passively sensitized with human atopy blood serum.
(§5) Thereafter the test was conducted in the same manner as in Test Example 1 to compare the histamine and SRS-A release-inhibition effect of the present medicine MTB with that of the known medicine DSCG.

release of SRS-A [6] = experiment: Inhibitory effect on the release of SRS-A from rhesus monkey lung slices (Test Example 2); format: cell-based; conditions: average of three measurements
Method: as §3, §4, §5

Acute toxicity in mouse = experiment: Acute toxicity in mouse; parameters: species or system Mouse (ddy); conditions: in vivo, read-out: Acute toxicity LD 50
Description: (§6) Animals tested were as follows.
Mouse: ddy, weight 20-23 g, 20 mice per group

Acute toxicity in rat = experiment: Acute toxicity in rat; parameters: species or system Rat (wistar); conditions: in vivo, read-out: Acute toxicity LD 50
Description: as §6
Rat: wistar, weight 110-130 g 10 rats per group

Acute toxicity in dog = format: in vivo, Dog (beagle); conditions: in vivo, po; dog male, p.o.; read-out: Acute toxicity LD 50
Description: as §6
(§7) Dog: beagle, weight 8 kg, 3 dogs per group

Dog = experiment: Acute toxicity in dog; format: in vivo, Dog (beagle); conditions: dog female, p.o.
Description: as §6, §7

[7] = Solubility of MTB original powder in water; format: physicochemical
[8] = Differential thermal scanning calorimeter measurement of crystal structure; format: physicochemical; conditions: DSC 30 type, Shimadzu
Description: From this observation, it has been confirmed that the treatment with the non-aqueous solvent in the new preparation process not only increases the mixing efficiency but also brings about a change in the crystal structure itself of MTB.

release of histamine [9] = conditions: Japanese Journal of Pharmacology, Vol. 32, pages 689-697, 1982; cited from earlier work

Compound `COc1ccc(/C=C/C(=O)Nc2ccccc2C(=O)O)cc1OC` [N-5', tranilast, reference compound] has a Histamine release-inhibition rate (release of histamine [1]; 10^-4 g/ml) of 16%, a Histamine release-inhibition rate (release of histamine [1]; 10^-5 g/ml) of 5% and an SRS-A release-inhibition rate (release of SRS-A [2]; 10^-4 g/ml) of 54%. It also gave an SRS-A release-inhibition rate (release of SRS-A [2]; 10^-5 g/ml) of 11%, a Histamine release-inhibition rate (release of histamine [3]; 10^-4 g/ml) of 31% and a Histamine release-inhibition rate (release of histamine [3]; 10^-5 g/ml) of 16%. The SRS-A release-inhibition rate (release of SRS-A [4]; 10^-4 g/ml) was 37%, the SRS-A release-inhibition rate (release of SRS-A [4]; 10^-5 g/ml) was 32% and the Tidal volume-decrease rate (experimental asthma; 0 min) was 0%. The Tidal volume-decrease rate (experimental asthma; 1 min) was 26%, the Tidal volume-decrease rate (experimental asthma; 2 min) was 24% and the Tidal volume-decrease rate (experimental asthma; 3 min) was 24%. It also gave a Tidal volume-decrease rate (experimental asthma; 4 min) of 26%, a Tidal volume-decrease rate (experimental asthma; 5 min) of 23% and a Tidal volume-decrease rate (experimental asthma; 6 min) of 25%. The Tidal volume-decrease rate (experimental asthma; 8 min) was 28%, the Tidal volume-decrease rate (experimental asthma; 10 min) was 24% and the Tidal volume-decrease rate (experimental asthma; 15 min) was 27%. The Tidal volume-decrease rate (experimental asthma; 20 min) was 22% and the Tidal volume-decrease rate (experimental asthma; 30 min) was 19%.

In the case of `CCCCOC(=O)C(=O)Nc1cccc(-c2nnn[nH]2)c1` [MTB, 5-(3-n-butyloxalyl-aminophenyl) tetrazole], the “histamine release-inhibition rate compared with DSCG and N-5' (in words)” value (release of histamine [1]) is reported as “remarkably high”, the Histamine release-inhibition rate (release of histamine [1]; 10^-4 g/ml) is reported as 37% and the Histamine release-inhibition rate (release of histamine [1]; 10^-5 g/ml) is reported as 30%. It also gave a Histamine release-inhibition rate (release of histamine [1]; 10^-6 g/ml) of 14%, a Histamine release-inhibition rate (release of histamine [1]; 10^-7 g/ml) of 6% and a Histamine release-inhibition rate (release of histamine [1]; 10^-8 g/ml) of 8%. The “SRS-A release-inhibition rate compared with DSCG and N-5' (in words)” value (release of SRS-A [2]) was “remarkably high”, the SRS-A release-inhibition rate (release of SRS-A [2]; 10^-4 g/ml) was 64% and the SRS-A release-inhibition rate (release of SRS-A [2]; 10^-5 g/ml) was 66%. For the same compound, the SRS-A release-inhibition rate (release of SRS-A [2]; 10^-6 g/ml) was 49%, the SRS-A release-inhibition rate (release of SRS-A [2]; 10^-7 g/ml) was 28% and the SRS-A release-inhibition rate (release of SRS-A [2]; 10^-8 g/ml) was 2%. For the same compound, the Histamine release-inhibition rate (release of histamine [5]; 10^-4 g/ml) was 27%, the Histamine release-inhibition rate (release of histamine [5]; 10^-5 g/ml) was 2% and the Histamine release-inhibition rate (release of histamine [5]; 10^-6 g/ml) was 12%. For the same compound, the Histamine release-inhibition rate (release of histamine [5]; 10^-7 g/ml) was 0%, the SRS-A release-inhibition rate (release of SRS-A [6]; 10^-4 g/ml) was 16% and the SRS-A release-inhibition rate (release of SRS-A [6]; 10^-5 g/ml) was 17%. It also gave an SRS-A release-inhibition rate (release of SRS-A [6]; 10^-6 g/ml) of 18%, an SRS-A release-inhibition rate (release of SRS-A [6]; 10^-7 g/ml) of 0% and a Histamine release-inhibition rate (release of histamine [3]; 10^-4 g/ml) of 27%. It also gave a Histamine release-inhibition rate (release of histamine [3]; 10^-5 g/ml) of 23%, a Histamine release-inhibition rate (release of histamine [3]; 10^-6 g/ml) of 23% and a Histamine release-inhibition rate (release of histamine [3]; 10^-7 g/ml) of 8%. It also gave a Histamine release-inhibition rate (release of histamine [3]; 10^-8 g/ml) of 0%, an SRS-A release-inhibition rate (release of SRS-A [4]; 10^-4 g/ml) of 47% and an SRS-A release-inhibition rate (release of SRS-A [4]; 10^-5 g/ml) of 47%. For the same compound, the SRS-A release-inhibition rate (release of SRS-A [4]; 10^-6 g/ml) was 43%, the SRS-A release-inhibition rate (release of SRS-A [4]; 10^-7 g/ml) was 31% and the SRS-A release-inhibition rate (release of SRS-A [4]; 10^-8 g/ml) was 2%. The Tidal volume-decrease rate (experimental asthma; 0 min) was 0%, the “decrease in unit tidal volume compared with control and N-5' (in words)” value (experimental asthma) was “remarkably low rate of decrease in unit tidal volume” and the Tidal volume-decrease rate (experimental asthma; 1 min) was 17%. The Tidal volume-decrease rate (experimental asthma; 2 min) was 17%, the Tidal volume-decrease rate (experimental asthma; 3 min) was 21% and the Tidal volume-decrease rate (experimental asthma; 4 min) was 23%. For the same compound, the Tidal volume-decrease rate (experimental asthma; 5 min) was 21%, the Tidal volume-decrease rate (experimental asthma; 6 min) was 22% and the Tidal volume-decrease rate (experimental asthma; 8 min) was 21%. It also gave a Tidal volume-decrease rate (experimental asthma; 10 min) of 21%, a Tidal volume-decrease rate (experimental asthma; 15 min) of 14% and a Tidal volume-decrease rate (experimental asthma; 20 min) of 19%. The Tidal volume-decrease rate (experimental asthma; 30 min) was 15%, the LD50 (Acute toxicity in mouse; ip, mouse female, i.p.) was 1160 mg/kg and the LD50 (Acute toxicity in mouse; ip, mouse male, i.p.) was 1120 mg/kg. It also gave an LD50 (Acute toxicity in mouse; iv, mouse female, i.v.) of 1220 mg/kg, an LD50 (Acute toxicity in mouse; iv, mouse male, i.v.) of 1130 mg/kg and an LD50 (Acute toxicity in mouse; po, mouse female, p.o.) of over 4000 mg/kg. For the same compound, the LD50 (Acute toxicity in mouse; po, mouse male, p.o.) was over 4000 mg/kg, the LD50 (Acute toxicity in mouse; sc, mouse female, s.c.) was over 4000 mg/kg and the LD50 (Acute toxicity in mouse; sc, mouse male, s.c.) was over 4000 mg/kg. For the same compound, the LD50 (Acute toxicity in rat; ip, rat female, i.p.) was 1430 mg/kg, the LD50 (Acute toxicity in rat; ip, rat male, i.p.) was 1430 mg/kg and the LD50 (Acute toxicity in rat; iv, rat female, i.v.) was 1160 mg/kg. The LD50 (Acute toxicity in rat; iv, rat male, i.v.) was 1110 mg/kg, the LD50 (Acute toxicity in rat; po, rat female, p.o.) was over 4000 mg/kg and the LD50 (Acute toxicity in rat; po, rat male, p.o.) was over 4000 mg/kg. For the same compound, the LD50 (Acute toxicity in rat; sc, rat female, s.c.) was over 4000 mg/kg, the LD50 (Acute toxicity in rat; sc, rat male, s.c.) was over 4000 mg/kg and the LD50 (Acute toxicity in dog) was over 4000 mg/kg. For the same compound, the “Acute toxicity LD 50” value (Dog) was over 4000 mg/kg, the “solubility in water (in words)” value [7] was “practically insoluble in water” and the “peak of absorption indicating the crystal structure (DSC)” value [8] was “shows a peak of absorption indicating the crystal structure”. For the same compound, the “anti-allergic action (in words)” value (release of histamine [9]) was “anti-allergic action, inhibiting the release of histamine”.

`O=C(O)c1cc(=O)c2c(OCC(O)COc3cccc4oc(C(=O)O)cc(=O)c34)cccc2o1` [DSCG, disodium cromoglicate, reference compound] gave a Histamine release-inhibition rate (release of histamine [1]; 10^-4 g/ml) of 2%, a Histamine release-inhibition rate (release of histamine [1]; 10^-5 g/ml) of 0% and an SRS-A release-inhibition rate (release of SRS-A [2]; 10^-4 g/ml) of 13%. The SRS-A release-inhibition rate (release of SRS-A [2]; 10^-5 g/ml) was 9%, the Histamine release-inhibition rate (release of histamine [5]; 10^-4 g/ml) was 0% and the Histamine release-inhibition rate (release of histamine [5]; 10^-5 g/ml) was 0%. It also gave an SRS-A release-inhibition rate (release of SRS-A [6]; 10^-4 g/ml) of 2%, an SRS-A release-inhibition rate (release of SRS-A [6]; 10^-5 g/ml) of 0% and a Histamine release-inhibition rate (release of histamine [3]; 10^-4 g/ml) of 18%. It also gave a Histamine release-inhibition rate (release of histamine [3]; 10^-5 g/ml) of 13%, an SRS-A release-inhibition rate (release of SRS-A [4]; 10^-4 g/ml) of 39% and an SRS-A release-inhibition rate (release of SRS-A [4]; 10^-5 g/ml) of 41%.

Source: US4778816A, “Anti-asthmatic composition and process for preparing the same” (Wakamoto Pharmaceutical Co., Ltd., priority 1984, dated 1988)
